The record followed here is patent publication US6617360B1, “Medical treatment” (Knoll Aktiengesellschaft, priority 1996, dated 2003).

One test deals with L6 muscle cells. Nature of the test: [3H]-2-deoxyglucose (2DG) uptake in L6 muscle cells with and without added insulin (Study 1). The test is classed as cell-based. The protocol:
L6 Muscle cells were obtained from the European Culture Collection (Porton Down) and were used at passages 7-11. Cells were maintained in standard tissue culture medium DMEM, and glucose uptake was assessed using [^3H]-2-deoxyglucose (2DG) with and without the presence of added insulin (10^−8 M) as has been previously described (Walker P S et al, Glucose transport activity in L6 muscle cells is regulated by the coordinate control of subcellular glucose transporter distribution, biosynthesis, and mRNA transcription, JBC, 1990;265(3), 1516-1523, and Kilp A et al, Stimulation of hexose transport by metformin in L6 muscle cells in culture, Endocrinology, 1992;130(5), 2535-2544).
Uptake of 2DG was expressed as the percentage change compared with control. Values are presented as mean±SEM of sets of 4 wells per experiment. Differences between sets of wells were evaluated by Student's t test, probability values p<0.05 were considered to be significant. […] In the presence of added insulin (10^−8 M), significant increases in 2DG uptake were observed following 24 hour incubation with the compound of formula I in which R1 and R2 are both methyl (sibutramine hydrochloride monohydrate) at 10^−8 M (from 149.9±4.3 to165.3±2.6), the compound of formula I in which R1 is methyl and R2 is H at 10^−7 M (from 147.3±3.0 to 160.7±4.5), and the compound of formula I in which R1 and R2 are both H, at 10^−7 M and 10^−6 M (from 149.1±3.9 to 161.8±3.3 and 165.2±3.6 respectively).

Test [1] concerns ob/ob mice (Aston Strain). Nature of the test: Chronic administration (10 mg/kg po) and withdrawal in obese ob/ob mice: plasma glucose, plasma insulin, body weight, food intake (Study 2). The format is in vivo. How it is done:
Studies were performed in obese ob/ob mice (Aston Strain) which are a model of severe insulin resistance and are also hyperglycaemic. The derivation and characteristics of this animal model have been previously described (Flatt P R, Bailey C J, Development of glucose intolerance and impaired plasma insulin response to glucose in obese hyperglycaemic (ob/ob) mice, Horm Metab Res 1981;13:556-560, and Bailey C J et al, Influence of genetic background and age on the expression of the obese hyperglycaemic syndrome in Aston ob/ob mice, Int J Obesity, 1982;6:11-21).
The ob/ob mice were individually housed in polypropylene cages at a temperature of 21±1° C. and 55% humidity. The mice had free access to a standard rat and mouse pelleted diet (Compound Rat and Mouse Diet, Special Diet Services, Witham, Essex) and tap water at all times. Animals were maintained on a reverse phase light-dark cycle. Lights were off between 09.00 h and 17.00 h in the acute experiment and between 10.00 h and 18.00 h in the chronic experiment. During this time the laboratory was illuminated by red lamps. Animals were acclimatised to these conditions for at least two weeks before experimentation.
All animals were given deionised water (at the start of the dark period) for 7 days. Body weight and food intake were measured daily. Blood samples were taken immediately before daily administration of vehicle (deionised water 10 ml/kg po) or compound of formula I in which R1 and R2 are both methyl (sibutramine hydrochloride monohydrate; 10 mg/kg po) on day 1 (baseline) and after 14 and 28 days of treatment (on day 15 and day 29 respectively). Blood samples were also taken 14 days following withdrawal of the sibutramine hydrochloride monohydrate (on day 43 of the study). Plasma glucose was determined by a glucose oxidase procedure (Analox GM7) and plasma insulin determined by radioimmunoassay (Amerlex, Amersham).

For test [2], the system named is ob/ob mice (Aston Strain). Nature of the test: 6 weeks of treatment (5 mg/kg/day po) and 6 weeks of withdrawal in young ob/ob mice: body weight, plasma insulin, ip glucose tolerance test, insulin hypoglycaemia test (Study 3). The format is in vivo. The protocol:
Young ob/ob mice (Aston Strain) were randomised into 3 groups as follows: control, receiving placebo treatment (phosphate buffered saline 2.5 ml/kg/day po); sibutramine hydrochloride monohydrate-treated (5 mg/kg/day po); and pair-fed control, supplied with the same daily food intake as that consumed by the sibutramine hydrochloride monohydrate-treated group on the previous day. There was a 1 week run-in period followed by 6 weeks of treatment. Body weight and food intake were monitored every 1 to 2 days, and blood samples for plasma glucose and insulin were taken from the tail vein at weekly intervals in the non-fasted state at 11 a.m. An ip glucose tolerance test (D-glucose, 2 g/kg in 40% w/v solution in distilled water) and an insulin hypoglycaemia test (Actrapid, Novo-Nordisk, 2.5 u/kg ip) were conducted after 5 weeks of treatment. Food was withheld only for the duration of these tests (approx. 4 hours). The basal blood samples and the test procedures were undertaken 18 hours after the last treatment administration.
Treatment was stopped after 6 weeks, and the mice were monitored for the next 6 weeks. The pair-fed mice continued to be pair-fed with respect to the sibutramine hydrochloride monohydrate withdrawal group. A second insulin hypoglycaemia test was conducted 4 weeks after treatment was stopped. Plasma glucose was determined by an automated glucose oxidase procedure (Beckman) and plasma insulin determined by radioimmunnoassay (Amerlex, Amersham).

Setting [3] is: added insulin 10^−8 M, 24 hour incubation, compound 10^−7 M, insulin alone 147.3±3.0 (R1 methyl, R2 H) or 149.1±3.9 (both H), mean±SEM.
Where [4] appears, read: compound group, day 1 of study, prior to treatment (baseline), mean ± SEM.
Where [5] appears, read: 6 week withdrawal period after 5 mg/kg/day po, vs vehicle treated group, for almost all of the period.

Each structure is given as a SMILES string.

As for `CC(C)CC(N)C1(c2ccc(Cl)cc2)CCC1` (stereo not drawn) [1-[1-(4-chlorophenyl)cyclobutyl]-3-methylbutylamine], the “Uptake of 2DG, percentage change compared with control” value (“Uptake of 2DG, percentage change” below) in the test on L6 muscle cells (absence of added insulin, 24 hours incubation, compound 10^−6 M, control 100±2.1, mean±SEM) turned out to be 134±7.3%; in the test with L6 muscle cells (absence of added insulin, 24 hours incubation, compound 10^−7 M, control 100±2.1, mean±SEM) it was 123.9±4.3%; in the test on L6 muscle cells (absence of added insulin, 24 hours incubation, compound 10^−8 M, control 100±2.1, mean±SEM), 116.9±3.8%; in the test on L6 muscle cells (added insulin 10^−8 M, 24 hour incubation, compound 10^−6 M, insulin alone 149.1±3.9, mean±SEM), 165.2±3.6%; with L6 muscle cells (setting [3]), 161.8±3.3%.
Take `CNC(CC(C)C)C1(c2ccc(Cl)cc2)CCC1` (stereo not drawn) [N-{1-[1-(4-chlorophenyl)cyclobutyl]-3-methylbutyl}-N-methylamine]: in the test on L6 muscle cells (setting [3]), the “Uptake of 2DG, percentage change” value was found to be 160.7±4.5%.
In the case of `CC(C)CC(N(C)C)C1(c2ccc(Cl)cc2)CCC1.Cl.O` (stereo not drawn) [sibutramine hydrochloride monohydrate, N,N-dimethyl-1-[1-(4-chlorophenyl)cyclobutyl]-3-methylbutylamine hydrochloride monohydrate], the “Uptake of 2DG, percentage change” value in the test on L6 muscle cells (added insulin 10^−8 M, 24 hour incubation, compound 10^−8 M, insulin alone 149.9±4.3, mean±SEM) stood at 165.3±2.6%. Also, the “Plasma glucose (in words)” value is “fell” in test [1] (10 mg/kg po daily, after 14 and 28 days of treatment, significant difference from control at day 28 (P<0.01)); “rose significantly” in test [1] (after 14 days of drug withdrawal, rose to control values). Further, the Plasma glucose in test [1] (10 mg/kg po daily, day 15 of study (14 days of treatment), vehicle 21.7 ± 0.9, mean ± SEM) was 19.0 ± 0.6 mmol/L; in test [1] (10 mg/kg po daily, day 29 of study (28 days of treatment), vehicle 26.0 ± 1.4, **P < 0.01 vs vehicle, mean ± SEM) it was 15.8 ± 0.7** mmol/l; in test [1] (setting [4]), 24.3 ± 0.6 mmol/L; in test [1] (day 43 of study, 14 days after drug withdrawal, vehicle 22.9 ± 1.7, mean ± SEM), 23.6 ± 1.2 mmol/L. In addition, the Plasma insulin in test [1] (10 mg/kg po daily, day 15 of study (14 days of treatment), vehicle 49.7 ± 3.5, mean ± SEM) came to 45.1 ± 2.6 ng/mL; in test [1] (10 mg/kg po daily, day 29 of study (28 days of treatment), vehicle 46.2 ± 4.5, mean ± SEM), 35.1 ± 2.7 ng/mL; in test [1] (setting [4]), 92.0 ± 4.5 ng/mL; in test [1] (day 43 of study, 14 days after drug withdrawal, vehicle 40.6 ± 8.6, mean ± SEM), 77.1 ± 11.3 ng/mL. Moreover, the “Plasma insulin (in words)” value in test [1] (10 mg/kg po daily, tended to fall on treatment and increased on withdrawal) was “No significant changes”; in test [2] (5 mg/kg/day po, during 6 weeks of treatment, non-fasted, compared to vehicle), “significant reduction”; in test [2] (setting [5]) it was “remained significantly lower”. Also, the “Body weight (in words)” value in test [1] (10 mg/kg po daily, vs vehicle) is “No significant changes”; in test [2] (5 mg/kg/day po, during 6 weeks of treatment, compared to vehicle), “significant reduction”; in test [2] (setting [5]), “remained significantly lower”. In test [1] (10 mg/kg po daily, vs vehicle), the “Food intake (in words)” value is given as “No significant changes”. In addition, the “Plasma insulin in ip glucose tolerance test (in words)” value in test [2] (5 mg/kg/day po, after 5 weeks of treatment, D-glucose 2 g/kg ip, vs vehicle, P<0.05, FIG. 1) was “significant reductions”. Also, the “Plasma glucose in ip glucose tolerance test (in words)” value in test [2] (5 mg/kg/day po, after 5 weeks of treatment, D-glucose 2 g/kg ip, vs vehicle, P<0.05, FIG. 2) is on record as “significant reductions”. For the same compound, the “Insulin hypoglycaemia test (in words)” value in test [2] (5 mg/kg/day po, at 5 weeks, insulin 2.5 u/kg ip, vs vehicle, P<0.05, FIG. 3) is given as “Significant improvements”.
